PMC4703387, “Identification of the Calmodulin-Binding Domains of Fas Death Receptor” (PLoS ONE, 2016)
Read-outs that look alike come from different tables or passages of the source. Where no end group is shown, it is not given here.

Legend:
[1] = molecular target: T1, Ca^2+/CaM (Homo sapiens, UniProt P0DP23); conditions: reference not given; earlier FasDD study of the authors: ref [32]; read-out: Kd to Ca^2+/CaM, full-length FasDD; cited from earlier work
T1 construct: made in house
Description: We have also shown that both lobes of Ca^2+/CaM are important for FasDD binding. […] Our attempt to identify the interaction regions by ... || To identify the Ca^2+/CaM-binding regions in large proteins is not a simple task. To predict the Ca^2+/CaM-binding site, a web-based tool is often used to provide favorable scores based on multiple criteria including hydropathy, α-helical propensity, hydrophobic residue content, residue charge, residue weight, helical class and occurrence of particular residues.[39] However, this method can still provide biased results.

[2] = molecular target: T1, Ca^2+/CaM; assay: Isothermal titration calorimetry (ITC), Ca^2+/CaM titrated into peptide; format: binding; conditions: Ca^2+/CaM 450 μM into 25 μM Fas-Pep1 (25°C) or 195 μM into 17 μM Fas-Pep2 (35°C); 50 mM HEPES (pH 7.0), 100 mM NaCl, 5 mM CaCl2; single set of identical sites; three replicates typically
Procedure: Thermodynamic parameters of Ca^2+/CaM binding to Fas-Pep1 and Fas-Pep2 peptides were determined using an Auto-iTC200 microcalorimeter (Malvern Instruments). […] Heat of reaction of Ca^2+/CaM was measured over 19 injections at 25°C for Fas-Pep1 or 35°C for Fas-Pep2. Heat of dilution was measured by titrating Ca^2+/CaM into buffer. Data analysis was performed using the Microcal Origin package (ver. 8.1). Baseline corrections were performed by subtracting heat of dilution from the raw Ca^2+/CaM-peptide titration data. Binding curves were analyzed and dissociation constants (Kd) were determined by nonlinear least-square fitting of the baseline-corrected data. The formula used to fit the data as one binding site is: ΔQ(i)=Q(i)+(dVi/Vo)[(Q(i)+Q(i−1))/2]–Q(i–1) where ΔQ(i) is the heat released at i^th injection, Q(i) is the total heat content of the solution, dVi is injection volume, and Vo is total volume. Three replicate titration experiments were typically performed for each peptide.
Although it is recognized that the most frequent mechanism of CaM binding to target proteins involves the hydrophobic surfaces on the N- and C-terminal lobes,[23] electrostatic interactions also contribute to the formation and stabilization of CaM-protein complexes since CaM is acidic and CaM-binding motifs are often basic.[44, 45] The thermodynamic parameters of binding and the relative contribution of hydrophobic vs. electrostatic factors are often assessed by ITC methods, yielding various parameters such as dissociation constant (Kd), stoichiometry (n), enthalpy change (ΔH°) and entropy change (ΔS°). The thermodynamic parameters of Ca^2+/CaM binding to Fas-Pep1 and Fas-Pep2 were assessed by ITC.

[3] = molecular target: T2, Ca^2+/CaM-N (Homo sapiens, UniProt P0DP23); assay: NMR titration (2D 1H-15N HSQC) of isolated N-terminal lobe; format: binding; conditions: NMR HSQC titration, one-site model, 35°C, 50 mM Tris-d11 (pH 7.0), 100 mM NaCl, 5 mM CaCl2; 15N-Ca^2+/CaM-N 150 μM
T2 construct: ^15N-labled samples of the isolated Ca^2+/CaM-N and Ca^2+/CaM-C domains; made in house
Procedure: (§1) NMR data were collected at 35°C on a Bruker Avance II (700 MHz ^1H) spectrometer equipped with a cryogenic triple-resonance probe, processed with NMRPIPE [35] and analyzed with NMRVIEW [36] or CCPN Analysis. […] For signal assignments of the complexes, ^13C-, ^15N-, or ^13C-/^15N-labeled Ca^2+/CaM at ~400–500 μM was mixed with unlabeled Fas-Pep1 (in 100% DMSO-d6) or Fas-Pep2 at 1.5:1 peptide:Ca^2+/CaM. […] The backbone atom resonances of Ca^2+/CaM complexes with Fas-Pep1 and Fas-Pep2 were assigned using HNCA, HN(CO)CA, HNCACB, HNCO, HN(CO)CACB and ^15N-edited NOESY-HSQC and TOCSY-HSQC experiments. These experiments have been also collected on ^15N-, or ^13C-/^15N-labeled Fas-Pep2 in complex with unlabeled Ca^2+/CaM to confirm the α-helical character of Fas-Pep2 when bound to Ca^2+/CaM. […] Combined ^1H-^15N chemical shift changes were calculated as ΔδHN = [(ΔδH)^2+(ΔδN/5)^2]^1/2, where ΔδH and ΔδN are the ^1H and ^15N chemical shift changes, respectively. Kd values were calculated by non-linear least-square fitting algorithm in Origin software (OriginLab, Northampton, MA) using the equation: ΔδHN=ΔδHN^max((Kd+L0+P0)−((Kd+L0+P0)^2−4*P0*L0)^0.5)/(2*P0) where ΔδHN^max is the chemical shift change between complex and free protein, L0 total concentration of ligand, and P0 total concentration of protein. […]

[4] = molecular target: T3, Ca^2+/CaM-C (Homo sapiens, UniProt P0DP23); assay: NMR titration (2D 1H-15N HSQC) of isolated C-terminal lobe; format: binding; conditions: NMR HSQC titration, one-site model, 35°C, 50 mM Tris-d11 (pH 7.0), 100 mM NaCl, 5 mM CaCl2; 15N-Ca^2+/CaM-C 150 μM
T3 construct: ^15N-labled samples of the isolated Ca^2+/CaM-N and Ca^2+/CaM-C domains; made in house
Procedure: as §1

[5] = molecular target: T1, Ca^2+/CaM; assay: NMR titration (2D 1H-15N HSQC) of 15N-labeled Ca^2+/CaM with FasDD peptides; format: binding
Procedure: NMR data were collected at 35°C on a Bruker Avance II (700 MHz ^1H) spectrometer equipped with a cryogenic triple-resonance probe, processed with NMRPIPE [35] and analyzed with NMRVIEW [36] or CCPN Analysis. […] For signal assignments of the complexes, ^13C-, ^15N-, or ^13C-/^15N-labeled Ca^2+/CaM at ~400–500 μM was mixed with unlabeled Fas-Pep1 (in 100% DMSO-d6) or Fas-Pep2 at 1.5:1 peptide:Ca^2+/CaM. […] The backbone atom resonances of Ca^2+/CaM complexes with Fas-Pep1 and Fas-Pep2 were assigned using HNCA, HN(CO)CA, HNCACB, HNCO, HN(CO)CACB and ^15N-edited NOESY-HSQC and TOCSY-HSQC experiments. These experiments have been also collected on ^15N-, or ^13C-/^15N-labeled Fas-Pep2 in complex with unlabeled Ca^2+/CaM to confirm the α-helical character of Fas-Pep2 when bound to Ca^2+/CaM. The chemical shifts of Ca^2+/CaM-bound Fas-Pep2 were used to predict its order parameters and secondary structure content in TALOS+.[38] Combined ^1H-^15N chemical shift changes were calculated as ΔδHN = [(ΔδH)^2+(ΔδN/5)^2]^1/2, where ΔδH and ΔδN are the ^1H and ^15N chemical shift changes, respectively. Kd values were calculated by non-linear least-square fitting algorithm in Origin software (OriginLab, Northampton, MA) using the equation: ΔδHN=ΔδHN^max((Kd+L0+P0)−((Kd+L0+P0)^2−4*P0*L0)^0.5)/(2*P0) where ΔδHN^max is the chemical shift change between complex and free protein, L0 total concentration of ligand, and P0 total concentration of protein.
To gain insights into the molecular elements of Ca^2+/CaM–FasDD interaction and to identify the interaction interface, we have utilized NMR chemical shift perturbation (CSP) as detected in ^1H-^15N heteronuclear single quantum coherence (HSQC) spectra. These experiments not only allow for identification of residues involved in binding but can also provide information on the induced conformational changes within proteins. 2D ^1H-^15N HSQC data obtained for a uniformly ^15N-labeled Ca^2+/CaM upon titration with unlabeled Fas-Pep1 are shown in Fig 5. Addition of substoichiometric amounts of Fas-Pep1 (0.5:1 peptide:Ca^2+/CaM) led to a decrease in intensity for a significant number of ^1H-^15N resonances accompanied by appearance of several new signals, consistent with a slow exchange on the NMR scale between the free and bound forms of Ca^2+/CaM. A steady decrease in intensity for the original ^1H-^15N signals and increase in intensity of the new signals was clearly observed with further addition of Fas-Pep1. Spectral changes ceased upon completion of peptide titration at 1.5:1 Fas-Pep1:Ca^2+/CaM ratio when only the new set of signals was present (Fig 5). […]
Only residues 214–227 have been detected in the x-ray structure of Ca^2+/CaM bound to FasDD(214–238); no electron density has been detected for residues 228–238.[40] […]

Substance: FasDD: intracellular death domain of Fas
- Kd [1]: ~2 µM

Substance: SDVDLSKYITTIAGVMTLSQVKGFVRKNGVN [Fas-Pep1]
- Kd [2]: 0.3 µM
- Kd [3]: ~268 µM
- Kd [4]: 76 µM

Substance: MTLSQVKGFVRKNGV [FasDD(224–238), synthetic FasDD peptide spanning residues 224–238; …]
- binding to Ca^2+/CaM by CSPs ([5]; 1H-15N HSQC titration, 15N-Ca^2+/CaM 100 μM, 35°C, pH 7.0): Numerous ^1H-^15N signals exhibited significant CSPs in the HSQC spectra (S7 Fig), indicating direct binding
- lobe preference on Ca^2+/CaM ([5]; 1H-15N HSQC, 15N-Ca^2+/CaM 100 μM): appears to bind to the C-terminal domain of Ca^2+/CaM
- NMR exchange regime with Ca^2+/CaM ([5]; 1H-15N HSQC, 15N-Ca^2+/CaM 100–150 μM, 35°C, pH 7.0): fast exchange
